US20240360137A1 (Novartis AG, priority 2023, published 2024)

Columns and labels:
Test in all cases: CDKi biochemical assay (TR-FRET, phosphorylation of S780 on RB1 peptide)
[1] = biological target: CDK2/CyclinE1 (Homo sapiens, UniProt P24941); conditions: CDK2/CyclinE1 100 pM, 1 mM ATP, 60 min at 25° C.
Description: (§1) Biochemical assays measured the inhibitory effects of compounds in this disclosure on the enzymatic activity of CDK enzyme in complex with Cyclin protein partner by phosphorylation of Ser-780 (S780) on retinoblastoma protein peptide (RB1) in the presence of 1 mM adenosime-5-triphosphate (ATP) and varying concentration of test compound in 20 mM 2-[4-(2-hydroxyethyl)paperazin-1-yl] ethanesulfonic acid (HEPES), pH 7.5, 10 mM MgCl2, 1 mM dithiothreitol (DTT), 0.01% bovine serum albumin (BSA), 0.005% Tween 20. Total Reaction volume of 10 μL proceeded for 60 minutes at room temperature (25° C.) and were quenched with 5 μL of 200 mM 2′,2″,2′″-(Ethane-1,2-diyldinitrilo)tetraacetic acid (EDTA) pH 8.0 before addition of 5 μL detection solution containing 100 nM fluorophore conjugate streptavidin allophycocyanin (SA-APC), 2 nM Europium labelled Anti-p-RB(S780)-K (Perkin Elmer, 64CUSKAY), 50 mM HEPES, pH 7.5, 400 mM potassium fluoride (KF), 0.1% BSA, and 0.01% Tween-20. Phosphorylation of S780 on RB1 peptide (His-MBP-RB1[773-924]-SEQ ID NO. 9) was detected by TR-FRET after 3 hour incubation with detection solution. Percent phosphorylation activity was plotted against log concentration of compound to generate an apparent ICSO. The following CDK enzyme in complex with different cyclin proteins and protein peptide substrate were used in these assays: • CDK1/CyclinB1, Avi-tag, 10 pM used in the assay • CDK2/CyclinE1, Avi-tag, 100 pM used in the assay • CDK4/cyclinD1, Avi-tag, 20 pM used in the assay • CDK6/cyclinD3, Avi-tag, 10 pM used in the assay • His-MBP-RB1[773-924], Avi-tag, 200 nM used in the assay
(§2) The avi-tag is a C-terminal fusion on the CDK1/2/4/6 sequence in each of these two-protein complexes. The known avi-tag sequence, […] (SEQ ID NO. 10), is a substrate for E. coli biotin ligase BirA, which covalently attaches a biotin molecule to the e-amino group of the lysine in that sequence. The avi-tag is attached with an 8 amino-acid linker sequence GGSGGGGS (SEQ ID NO. 11), resulting in the full C-terminal fusion
(§3) Recombinant proteins were generated as N-terminal fusions of 9× His tag—E. coli Maltose Binding Protein (MBP), with or without a C-terminal Avi-tag.^1 CDK2 and His-MBP-RB1[773-924]-c-avi were expressed in E. coli while the remainder were expressed in Sf21 insect cells. Genes were synthesized commercially (GeneArt and Twist Bioscience) using codon frequencies appropriate to the respective organisms and proprietary codon optimization strategies, and inserted into pET 24 (E. coli) or pDEST8 (insect) vectors already containing the 9× His-MBP tag using standard methods of PCR and Gibson Assembly.^2 E. coli expression was performed by auto-induction overnight at 18 or 21 C. For insect cell expression, bacmids and viruses were created,^3 then used to synchronously infect Sf21 insect cells with harvest at 40-48 hrs., per standard protocols.^4
(§4) For CDK2/Cyclin E and CDK1/Cyclin B, the CDK and Cyclin proteins were expressed separately, lysed by sonication and clarified by centrifugation. The fusion proteins were each separately purified by immobilized metal ion affinity chromatography (IMAC) (5 mL HisTrap, Cytiva) and Superdex 200 26/60 (Cytiva) size-exclusion and complexed in vitro (1-3 hrs incubation at room temperature) prior to tag cleavage by recombinant his-tagged Tobacco Etch Virus protease or his-tagged Human rhinovirus 3C protease, as appropriate. The cleaved complex is further purified by Superdex 75 26/60 (Cytiva) size-exclusion followed by reverse-IMAC, in which the complex is in the column flow-through and residual His-MBP and his-tagged proteases are retained. The final complex is concentrated as desired by centrifugal concentration (Amicon Ultra 10,000 Da MWCO 15 mL concentrators, Millipore).
For E. coli expressed CDK2 and His-MBP-RB1[773-924]-c-avi, the proteins were biotinylated in vitro after the first IMAC step.^1
(§5) For the is-MBP-RB1[773-924]-c-avi, the protein was lysed by sonication and clarified by centrifugation. […]

[2] = biological target: CDK6/cyclinD3 (Homo sapiens, UniProt Q00534); conditions: CDK6/cyclinD3 10 pM, 1 mM ATP, 60 min at 25° C.
Description: as §1, §2, §3
(§6) For CDK4/Cyclin D1 and CDK6/Cyclin D3, the complexes were expressed by simultaneous co-infection of insect cells by three separate viruses including one expressing untagged E. coli BirA. The expression media is supplemented with 50 uM d-biotin. The resulting protein complexes purified similarly. After lysis and clarification, the complex is purified by IMAC, Superdex 200 26/60 size exclusion, tag cleavage by human rhinovirus 3C protease, Superdex 75 26/60 size exclusion and reverse IMAC. BirA is typically not retained on the first IMAC, and excess CDK or Cyclin monomer is separated on the Superdex 200 size exclusion. Cleaved His-MBP and remaining monomer are removed by the Superdex 75 size exclusion and the reverse IMAC step. Final concentration by centrifugal concentrators as described above.
as §5

[3] = biological target: CDK4/cyclinD1 (Homo sapiens, UniProt P11802); conditions: CDK4/cyclinD1 20 pM, 1 mM ATP, 60 min at 25° C.
Description: as §1, §2, §3, §6, §5

[4] = biological target: CDK1/CyclinB1 (Homo sapiens, UniProt P06493); conditions: CDK1/CyclinB1 10 pM, 1 mM ATP, 60 min at 25° C.
Description: as §1, §2, §3, §4, §5

IC50 [1]	IC50 [2]	IC50 [3]	IC50 [4]	Structure (SMILES)
0.006 µM	4.8 µM	2.76 µM	0.34 µM	O=C1N([C@@H]2CCC[C@@H](O)C2)c2nc(Nc3c[nH]nc3C3CC3(F)F)ncc2C12CC2 (single isomer, unassigned) [Example 32]
0.018 µM	6.68 µM	4.52 µM	1.21 µM	Cc1n[nH]cc1Nc1ncc2c(n1)N([C@@H]1CCC[C@@H](O)C1)C(=O)C21CC1 [Example 2, 7′-((1R,3R)-3-hydroxycyclohexyl)-2′-((3-methyl-1H-pyrazol-4-yl)amino)spiro[cyclopropane-1,5′-pyrrolo[2,3-d]pyrimidin]-6′(7′H)-one]
0.007 µM	3.76 µM	2.74 µM	0.82 µM	O=C1N([C@@H]2CCC[C@@H](O)C2)c2nc(Nc3c[nH]nc3C(F)F)ncc2C12CC2 [Example 3, 2′-((3-(difluoromethyl)-1H-pyrazol-4-yl)amino)-7′-((1R,3R)-3-hydroxycyclohexyl)spiro[cyclopropane-1,5′-pyrrolo[2,3-d]pyrimidin]-6′(7′H)-one]
0.096 µM	≥ 10 µM	≥ 10 µM	≥ 10 µM	COC(=O)c1n[nH]cc1Nc1ncc2c(n1)N([C@@H]1CCC[C@@H](O)C1)C(=O)C21CC1 [Example 4, methyl 4-((7′-((1R,3R)-3-hydroxycyclohexyl)-6′-oxo-6′,7′-dihydrospiro[cyclopropane-1,5′-pyrrolo[2,3-d]pyrimidin]-2′-yl)amino)-1H-pyrazole-3-carboxylate]
0.032 µM	2.18 µM	0.84 µM	2.94 µM	O=C1N([C@@H]2CCC[C@@H](O)C2)c2nc(Nc3c[nH]nc3CO)ncc2C12CC2 [Example 6, 7′-((1R,3R)-3-hydroxycyclohexyl)-2′-((3-(hydroxymethyl)-1H-pyrazol-4-yl)amino)spiro[cyclopropane-1,5′-pyrrolo[2,3-d]pyrimidin]-6′(7′H)-one]
0.02 µM	7.9 µM	7.37 µM	2.24 µM	COc1n[nH]cc1Nc1ncc2c(n1)N([C@@H]1CCC[C@@H](O)C1)C(=O)C21CC1 [Example 12, 7′-((1R,3R)-3-hydroxycyclohexyl)-2′-((3-methoxy-1H-pyrazol-4-yl)amino)spiro[cyclopropane-1,5′-pyrrolo[2,3-d]pyrimidin]-6′(7′H)-one]
0.012 µM	7.1 µM	5.28 µM	0.92 µM	O=C1N([C@@H]2CCC[C@@H](O)C2)c2nc(Nc3c[nH]nc3Cl)ncc2C12CC2 [Example 13, 2′-((3-chloro-1H-pyrazol-4-yl)amino)-7′-((1R,3R)-3-hydroxycyclohexyl)spiro[cyclopropane-1,5′-pyrrolo[2,3-d]pyrimidin]-6′(7′H)-one]
0.031 µM	≥ 10 µM	–	5.32 µM	CSc1n[nH]cc1Nc1ncc2c(n1)N([C@@H]1CCC[C@@H](O)C1)C(=O)C21CC1 [Example 52, 7′-((1R,3R)-3-hydroxycyclohexyl)-2′-((3-(methylthio)-1H-pyrazol-4-yl)amino)spiro[cyclopropane-1,5′-pyrrolo[2,3-d]pyrimidin]-6′(7′H)-one]

The next lines start with the compound.

Structure (SMILES)	IC50 [1]	IC50 [2]	IC50 [3]	IC50 [4]
Cn1cc(Nc2ncc3c(n2)N([C@@H]2CCC[C@@H](O)C2)C(=O)C32CC2)cn1 [Example 1, 7′-((1R,3R)-3-hydroxycyclohexyl)-2′-((1-methyl-1H-pyrazol-4-yl)amino)spiro[cyclopropane-1,5′-pyrrolo[2,3-d]pyrimidin]-6′(7′H)-one]	0.038 µM	0.6 µM	0.4 µM	1.54 µM
Cc1cc(Nc2ncc3c(n2)N([C@@H]2CCC[C@@H](O)C2)C(=O)C32CC2)[nH]n1 [Example 5, 7′-((1R,3R)-3-hydroxycyclohexyl)-2′-((3-methyl-1H-pyrazol-5-yl)amino)spiro[cyclopropane-1,5′-pyrrolo[2,3-d]pyrimidin]-6′(7′H)-one]	1.12 µM	5.73 µM	6.69 µM	≥ 10 µM
Cc1n[nH]cc1Nc1ncc2c(n1)N([C@H]1C[C@H](O)CC(C)(C)C1)C(=O)C21CC1 [Example 7, 7′-((1R,5R)-5-hydroxy-3,3-dimethylcyclohexyl)-2′-((3-methyl-1H-pyrazol-4-yl)amino)spiro[cyclopropane-1,5′-pyrrolo[2,3-d]pyrimidin]-6′(7′H)-one]	0.136 µM	2.21 µM	3.86 µM	5.99 µM
O=C1N([C@@H]2CCC[C@@H](O)C2)c2nc(Nc3c[nH]nc3C3CCOC3)ncc2C12CC2 (stereo partly drawn) [Example 8, 7′-((1R,3R)-3-hydroxycyclohexyl)-2′-((3-(tetrahydrofuran-3-yl)-1H-pyrazol-4-yl)amino)spiro[cyclopropane-1,5′-pyrrolo[2,3-d]pyrimidin]-6′(7′H)-one]	0.234 µM	≥ 10 µM	≥ 10 µM	≥ 10 µM
O=C1N([C@@H]2CCC[C@@H](O)C2)c2nc(Nc3cnn4c3CNCC4)ncc2C12CC2 [Example 9, 7′-((1R,3R)-3-hydroxycyclohexyl)-2′-((4,5,6,7-tetrahydropyrazolo[1,5-a]pyrazin-3-yl)amino)spiro[cyclopropane-1,5′-pyrrolo[2,3-d]pyrimidin]-6′(7′H)-one]	0.268 µM	≥ 10 µM	≥ 10 µM	≥ 10 µM
O=C1N([C@@H]2CCC[C@@H](O)C2)c2nc(Nc3c[nH]nc3C3CCCCO3)ncc2C12CC2 (stereo partly drawn) [Example 10, 7′-((1R,3R)-3-hydroxycyclohexyl)-2′-((3-(tetrahydro-2H-pyran-2-yl)-1H-pyrazol-4-yl)amino)spiro[cyclopropane-1,5′-pyrrolo[2,3-d]pyrimidin]-6′(7′H)-one]	1.22 µM	≥ 10 µM	≥ 10 µM	≥ 10 µM
COCc1ncc(Nc2ncc3c(n2)N([C@@H]2CCC[C@@H](O)C2)C(=O)C32CC2)[nH]1 [Example 11, 7′-((1R,3R)-3-hydroxycyclohexyl)-2′-((2-(methoxymethyl)-1H-imidazol-5-yl)amino)spiro[cyclopropane-1,5′-pyrrolo[2,3-d]pyrimidin]-6′(7′H)-one]	1.35 µM	9.35 µM	5.73 µM	≥ 10 µM
COc1n[nH]cc1Nc1ncc2c(n1)N([C@@H]1CCCC[C@@H](O)C1)C(=O)C21CC1 [Example 18]	0.114 µM	–	≥ 10 µM	≥ 10 µM
